Assays:
[1] = system: Female CBA/Ca mice; assay: murine local lymph node assay (LLNA); type: in vivo
Procedure: Female CBA/Ca mice, 7 to 9 weeks of age, were purchased from NOVA SCB Charles River, Germany. The mice were housed in HEPA-filtered air flow cages and kept on standard laboratory diet and water ad lib. The regional ethics committee, Jordbruksverket, approved the protocol and the procedure was performed in accordance with the guidelines.
A previously published protocol[24] of the LLNA[34] was used to assess the sensitization potential of the isosorbide bis-epoxides 1–3. The purity of the assessed isosorbide bis-epoxides was >99% (GC/MS or LC/MS) before testing of sensitization potential. The isosorbide bis-epoxides were tested in five different concentrations; 1: 3.9 mM (0.10% w/v), 39 mM (1.0% w/v), 190 mM (5.0% w/v), 390 mM (10% w/v), and 770 mM (20% w/v); 2: 21 mM (1.0% w/v), 54 mM (2.5% w/v), 110 mM (5.0% w/v), 210 mM (10% w/v), and 540 mM (25% w/v); and 3: 2.3 mM (0.10% w/v), 23 mM (1.0% w/v), 110 mM (5.0% w/v), 230 mM (10% w/v), and 460 mM (20% w/v). A detailed description is given in Supporting Information.
The three isosorbide bis-epoxides were evaluated for sensitization potential in vivo with the murine LLNA (Figure 2). The stimulation index (SI) is defined as the ratio between the dpm/lymph node for the test group and the control group. Test materials that at one or more concentrations cause an SI greater than 3 are considered positive in the LLNA. The estimated concentration required to induce an SI of 3 (EC3) is used to determine the sensitizing potency of the test compound. […] Isosorbide bis-epoxide 1 gave an EC3 value of 0.17 M (4.4%), 3 gave an EC3 value of 0.36 M (16%), and no EC3 value was obtained for 2 (for full results, see the Supporting Information, Table S1).
A previously published protocol1 of the LLNA2 was used to assess the sensitization potential of the isosorbide bis-epoxides 1-3. The purity of the assessed isosorbide bis-epoxides was >98% according to LC/MS analysis. The isosorbide bis-epoxides were tested in five different concentrations; 1: 3.87 mM […]
456 mM (20% w/v). Briefly, mice in groups of three received 25 µL of test compound dissolved in the vehicle acetone/olive oil (4:1 v/v), on the dorsum of the ears for three consecutive days (day 0, 1, and 2). A sixth group of four mice was treated with vehicle only (control group). On day 5, all mice were injected intravenously via the tail vein with 250 µL of phosphate buffered saline (PBS) (pH 7.4, 137 mM NaCl, 2.7 mM KCl, and 10 mM phosphate buffer) containing 20 µCi [methyl-3H]thymidine. Five hours later the mice were sacrificed, the draining lymph nodes were excised and pooled for each group, followed by preparation of single-cell suspensions of lymph nodes in PBS by using cell strainers (Falcon; BD Labware, Franklin Lakes, NJ, USA; pore size, 70 µm). Cell suspensions were washed twice with PBS, precipitated with trichloroacetic acid (TCA) (5%), and stored at 4 °C overnight. The samples were then centrifuged, resuspended in TCA (5%, 1 mL), and transferred to scintillation cocktail (10 mL) (EcoLume INC Radiochemicals, Solon, OH, USA). The incorporation of [methyl-3H]thymidine into DNA was measured by b-scintillation counting with a Beckman LS 6000TA instrument. Results are expressed as the mean dpm/lymph node for each experimental group and as stimulation index (SI). The SI is defined as the ratio between dpm/lymph node for the test group and the control group. Test materials that at one or more concentrations cause an SI greater than 3 are considered positive in the LLNA. EC3 values (the estimated concentration required to induce an SI of 3) were calculated by linear interpolation.
Results from the Local Lymph Node Assay
Table S1: Full results from the LLNA of bis-epoxides 1-3a
Test Test [3H]thymidine SI EC value

[2] = thermogravimetric analysis (TGA) of polymers formed with TETA; type: physicochemical; conditions: polymer cured with TETA, TGA under nitrogen
Procedure: Detailed information on the polymerization procedure and the thermogravimetric analysis (TGA) is given in the Supporting Information.
Pilot experiments using TGA were conducted to investigate the properties of the polymers formed from isosorbide bis-epoxides 1–3 and the commonly used curing agent TETA (Table 2 and Figure 6). The onset of degradation is described by the initial decomposition temperature (IDT) and is an indication of the thermal stability of the cured epoxy resins. The maximum weight loss rate (Rmax) and the temperature (Tmax) at Rmax were taken from the peak values of the thermograms. The activation energies (Ea) for the decomposition of the polymers were calculated from the thermograms based on the Horowitz–Metzger equation.[43],[44]

[3] = estimated concentration required to induce an SI of 3, linear interpolation

Row | SMILES | SI ([1]; test concentration 1.0% w/v) | [3H]thymidine incorporation (dpm/lymph node) ([1]; test concentration 1.0% w/v) | SI ([1]; test concentration 5.0% w/v) | [3H]thymidine incorporation (dpm/lymph node) ([1]; test concentration 5.0% w/v) | SI ([1]; test concentration 10% w/v) | [3H]thymidine incorporation (dpm/lymph node) ([1]; test concentration 10% w/v) | Ea (activation energy for the decomposition of the cured epoxy resins) [2] | IDT (initial decomposition temperature) [2] | Rmax (maximum weight loss rate) [2] | Tmax (temperature at the maximum rate of weight loss) [2] | other results
1 | O=C(OC1COC2C(OC(=O)c3ccc(CC4CO4)cc3)COC12)c1ccc(CC2CO2)cc1 [Compound 2, (3R,3aR,6S,6aR)-3,6-O-Bis[4-(3,4-epoxypropyl)benzoyl]-1,4:3,6-dianhydro-D-glucitol] | 1.06 | 455 dpm/lymph node | 1.10 | 473 dpm/lymph node | 1.07 | 459 dpm/lymph node | 15.8 kcal/mol | 361 °C | –0.373 %/°C | 411 °C | LLNA outcome ([1]; in concentrations up to 25% w/v (0.54 M)): nonsensitizing; SI ([1]; test concentration 2.5% w/v): 1.43; [3H]thymidine incorporation (dpm/lymph node) ([1]; test concentration 2.5% w/v): 614 dpm/lymph node; SI ([1]; test concentration 25% w/v): 2.27; [3H]thymidine incorporation (dpm/lymph node) ([1]; test concentration 25% w/v): 972 dpm/lymph node
2 | c1cc(CC2CO2)ccc1CO[C@H]1CO[C@H]2[C@@H]1OC[C@H]2OCc1ccc(CC2CO2)cc1 (stereo partly drawn) [Compound 3, (3R,3aR,6S,6aR)-3,6-O-Bis[4-(3,4-epoxypropyl)benzyl]-1,4:3,6-dianhydro-D-glucitol] | 1.56 | 706 dpm/lymph node | 2.55 | 1158 dpm/lymph node | 2.85 | 1292 dpm/lymph node | 18.2 kcal/mol | 329 °C | –0.722 %/°C | 382 °C | EC3 value (%) ([1]; as printed in main text): 16%; sensitizing potency classification ([1]; classified by EC3): moderate (EC3 > 2%, moderate); EC3 value [1, 3]: 0.36 M; EC3 value (% w/v) [1, 3]: 15.8 % w/v; SI ([1]; test concentration 0.10% w/v): 1.06; [3H]thymidine incorporation (dpm/lymph node) ([1]; test concentration 0.10% w/v): 479 dpm/lymph node; SI ([1]; test concentration 20% w/v): 3.11; [3H]thymidine incorporation (dpm/lymph node) ([1]; test concentration 20% w/v): 1412 dpm/lymph node

From article PMC9945177, “Nature-Derived Epoxy Resin Monomers with Reduced Sensitizing Capacity—Isosorbide-Based Bis-Epoxides” (Chemical Research in Toxicology, 2023)
